The results in this text go back to patent US20170334899A1, “AMINO-SUBSTITUTED ISOTHIAZOLES” (Bayer Pharma Aktiengesellschaft, priority 2014, published 2017).

The target of the test is T1, human kinase Mps-1 (Homo sapiens, UniProt P33981).
T1 construct: N-terminally GST-tagged human full length recombinant Mps-1 kinase; GST (N); purchased Invitrogen, Karslruhe, Germany PV4071
T1 sequence (P33981 1-857): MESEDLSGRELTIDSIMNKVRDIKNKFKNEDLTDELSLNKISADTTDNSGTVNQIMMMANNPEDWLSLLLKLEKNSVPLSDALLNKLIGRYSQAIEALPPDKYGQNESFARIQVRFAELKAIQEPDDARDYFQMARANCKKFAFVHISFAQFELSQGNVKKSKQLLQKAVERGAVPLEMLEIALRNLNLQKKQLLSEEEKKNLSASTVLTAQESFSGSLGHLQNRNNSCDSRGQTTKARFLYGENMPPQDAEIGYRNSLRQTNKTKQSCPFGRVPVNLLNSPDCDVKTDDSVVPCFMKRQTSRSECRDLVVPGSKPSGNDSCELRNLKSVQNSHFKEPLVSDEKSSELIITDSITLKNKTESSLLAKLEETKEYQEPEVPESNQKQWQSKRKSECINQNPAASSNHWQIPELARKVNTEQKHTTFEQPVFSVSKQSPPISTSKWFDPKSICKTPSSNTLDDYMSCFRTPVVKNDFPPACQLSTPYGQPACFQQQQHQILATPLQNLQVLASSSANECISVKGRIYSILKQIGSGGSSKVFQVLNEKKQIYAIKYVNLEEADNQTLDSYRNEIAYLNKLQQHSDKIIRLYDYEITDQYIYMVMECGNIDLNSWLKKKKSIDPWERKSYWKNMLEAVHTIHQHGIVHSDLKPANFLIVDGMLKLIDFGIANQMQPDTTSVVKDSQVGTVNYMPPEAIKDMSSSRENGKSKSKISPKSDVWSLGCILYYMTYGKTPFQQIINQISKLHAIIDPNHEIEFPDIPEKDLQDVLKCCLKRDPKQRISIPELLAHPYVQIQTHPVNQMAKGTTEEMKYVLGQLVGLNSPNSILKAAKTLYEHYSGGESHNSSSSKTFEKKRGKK
Nature of the test: Mps-1 kinase assay (TR-FRET). The format is biochemical. The conditions noted are these: Mps-1 TR-FRET kinase assay; avg; read-out: Mps1 avg (IC50 [mol/l]). The essentials: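 GST-tagged full-length recombinant human Mps-1 (~0.5 nM) pre-incubated 15 min with compound, then reacted 60 min at 22 °C with 10 μM ATP and 1 μM biotinylated peptide in Hepes pH 7.7 buffer. EDTA-stopped; TR-FRET (Eu anti-phospho-Ser/Thr to SA-XLent) 665/620 nm ratio normalised to no-inhibitor and no-enzyme controls.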
For orientation: Time-resolved FRET reads energy transfer from a long-lived donor to a nearby acceptor.
As for `Cc1nsc(Nc2cnc(C(F)(F)F)cn2)c1C(=O)Nc1cccc(S(C)(=O)=O)c1` [Example 195, 3-methyl-N-[3-(methylsulfonyl)phenyl]-5-{[5-(trifluoromethyl)pyrazin-2-yl]amino}-1,2-thiazole-4-carboxamide], the IC50 was greater than 20 µM.

`Cc1nsc(Nc2cnc3ccccc3n2)c1C(=O)Nc1cccc(NC(=O)OC(C)(C)C)c1` [Example 178, tert-butyl [3-({[3-methyl-5-(quinoxalin-2-ylamino)-1,2-thiazol-4-yl]carbonyl}amino)-phenyl]carbamate]: the IC50 is greater than 20 µM.

In the case of `Cc1nsc(Nc2cncc(C(F)(F)F)n2)c1C(=O)Nc1ccc(OCCNC(=O)OC(C)(C)C)c(F)c1` [Example 216, tert-butyl [2-(2-fluoro-4-{[(3-methyl-5-{[6-(trifluoromethyl)pyrazin-2-yl]amino}-1,2-thiazol-4-yl)carbonyl]amino}phenoxy)ethyl]carbamate], the IC50 is greater than 20 µM.

For the molecule `Cc1nsc(Nc2cncc(C(F)(F)F)n2)c1C(=O)Nc1ccc(OC2CCNCC2)nc1` [Example 13, 3-Methyl-N-[6-(piperidin-4-yloxy)pyridin-3-yl]-5-{[6-(trifluoromethyl)pyrazin-2-yl]-amino}-1,2-thiazole-4-carboxamide], the IC50 was no less than 20 µM.

`Cc1nsc(Nc2ccc(C#N)cn2)c1C(=O)Nc1cccc(NC(=O)OC(C)(C)C)c1` [Example 179, tert-butyl {3-[({5-[(5-cyanopyridin-2-yl)amino]-3-methyl-1,2-thiazol-4-yl}carbonyl)amino]phenyl}carbamate]: the IC50 is greater than 20 µM.

Consider `Cc1nsc(Nc2ccc(C#N)cn2)c1C(=O)Nc1ccc(S(C)(=O)=O)cc1` [Example 246, 5-[(5-cyanopyridin-2-yl)amino]-3-methyl-N-[4-(methylsulfonyl)phenyl]-1,2-thiazole-4-carboxamide], for which the IC50 was greater than 20 µM.

`Cc1nsc(Nc2cnc(C(F)(F)F)cn2)c1C(=O)Nc1ccc(OCC2CCCN(C(=O)OC(C)(C)C)C2)nc1` (stereo not drawn) [Example 228, tert-butyl 3-{[(5-{[(3-methyl-5-{[5-(trifluoromethyl)pyrazin-2-yl]amino}-1,2-thiazol-4-yl)carbonyl]amino}pyridin-2-yl)oxy]methyl}piperidine-1-carboxylate]: the IC50 was greater than 20 µM.

On to `Cc1nsc(Nc2cnc(C(F)(F)F)cn2)c1C(=O)Nc1ccc(OC2CCN(C(=O)OC(C)(C)C)CC2)c(F)c1` [Example 217, tert-butyl 4-(2-fluoro-4-{[(3-methyl-5-{[5-(trifluoromethyl)pyrazin-2-yl]amino}-1,2-thiazol-4-yl)carbonyl]amino}phenoxy)piperidine-1-carboxylate], for which the IC50 was greater than 20 µM.

With `COC(=O)c1cc(NC(=O)c2c(C)nsc2Nc2cnc3ccccc3n2)cc(C(=O)OC)c1` [Example 237, dimethyl 5-({[3-methyl-5-(quinoxalin-2-ylamino)-1,2-thiazol-4-yl]carbonyl}amino)isophthalate], the IC50 is greater than 20 µM.

On to `Cc1nsc(Nc2cc(C#N)ccn2)c1C(=O)Nc1ccc(Oc2cccc(C(F)(F)F)c2)nc1` [Example 230, 5-[(4-cyanopyridin-2-yl)amino]-3-methyl-N-{6-[3-(trifluoromethyl)phenoxy]pyridin-3-yl}-1,2-thiazole-4-carboxamide], for which the IC50 is greater than 20 µM.

Take `Cc1nsc(Nc2cc(C#N)ccn2)c1C(=O)Nc1cccc(C(=O)NC2CC2)c1` [Example 175, 5-[(4-cyanopyridin-2-yl)amino]-N-[3-(cyclopropylcarbamoyl)phenyl]-3-methyl-1,2-thiazole-4-carboxamide]: the IC50 was greater than 20 µM.

In the case of `Cc1cc(C)n(-c2ccccc2NC(=O)c2c(C)nsc2Nc2cnc3ccccc3n2)n1` [Example 243, N-[2-(3,5-dimethyl-1H-pyrazol-1-yl)phenyl]-3-methyl-5-(quinoxalin-2-ylamino)-1,2-thiazole-4-carboxamide], the IC50 was greater than 20 µM.

As for `Cc1nsc(Nc2ccc(C#N)cn2)c1C(=O)Nc1ccc(F)c(C(N)=O)c1` [Example 203, N-(3-carbamoyl-4-fluorophenyl)-5-[(5-cyanopyridin-2-yl)amino]-3-methyl-1,2-thiazole-4-carboxamide], the IC50 was greater than 20 µM.

Consider `CC(=O)Nc1cc(NC(=O)c2c(C)nsc2Nc2cnc(C(F)(F)F)cn2)ccc1F` [Example 206, N-(3-acetamido-4-fluorophenyl)-3-methyl-5-{[5-(trifluoromethyl)pyrazin-2-yl]amino}-1,2-thiazole-4-carboxamide], for which the IC50 was greater than 20 µM.

Take `Cc1nsc(Nc2cncc(C(F)(F)F)n2)c1C(=O)Nc1ccc(OC2CCN(CC(F)(F)F)CC2)nc1` [Example 16, 3-Methyl-N-(6-{[1-(2,2,2-trifluoroethyl)piperidin-4-yl]oxy}pyridin-3-yl)-5-{[6-(trifluoromethyl)pyrazin-2-yl]amino}-1,2-thiazole-4-carboxamide]: the IC50 was no less than 20 µM.

Consider `Cc1nsc(Nc2cncc(C(F)(F)F)n2)c1C(=O)Nc1ccc(C(=O)NC2CCN(CC(F)F)CC2)cc1` [Example 225, N-N-(4-{[1-(2,2-difluoroethyl)piperidin-4-yl]carbamoyl}phenyl)-3-methyl-5-{[6-(trifluoromethyl)pyrazin-2-yl]amino}-1,2-thiazole-4-carboxamide], for which the IC50 was greater than 20 µM.

On to `Cc1nsc(Nc2cncc(C(F)(F)F)n2)c1C(=O)Nc1ccc(OCCCN)nc1` [Example 209, N-[6-(3-aminopropoxy)pyridin-3-yl]-3-methyl-5-{[6-(trifluoromethyl)pyrazin-2-yl]amino}-1,2-thiazole-4-carboxamide], for which the IC50 is greater than 20 µM.

On to `Cc1nsc(Nc2cnc(C(F)(F)F)cn2)c1C(=O)Nc1ccc(OCCNC(=O)OC(C)(C)C)nc1` [Example 192, tert-butyl {2-[(5-{[(3-methyl-5-{[5-(trifluoromethyl)pyrazin-2-yl]amino}-1,2-thiazol-4-yl)carbonyl]amino}pyridin-2-yl)oxy]ethyl}carbamate], for which the IC50 is greater than 20 µM.

`CC(=O)N1CCC(Oc2ccc(NC(=O)c3c(C)nsc3Nc3cncc(C(F)(F)F)n3)cn2)CC1` [Example 17, N-{6-[(1-Acetylpiperidin-4-yl)oxy]pyridin-3-yl}-3-methyl-5-{[6-(trifluoromethyl)-pyrazin-2-yl]amino}-1,2-thiazole-4-carboxamide]: the IC50 turned out to be 18 µM.

Regarding `Cc1nsc(Nc2cnc3ccccc3n2)c1C(=O)Nc1ccc(C(N)=O)c(F)c1` [Example 201, N-(4-carbamoyl-3-fluorophenyl)-3-methyl-5-(quinoxalin-2-ylamino)-1,2-thiazole-4-carboxamide], the IC50 was greater than 20 µM.

For `Cc1nsc(Nc2cc(C#N)ccn2)c1C(=O)Nc1cccc(C(=O)OC(C)(C)C)c1` [Example 239, tert-butyl 3-[({5-[(4-cyanopyridin-2-yl)amino]-3-methyl-1,2-thiazol-4-yl}carbonyl)amino]benzoate], the IC50 is greater than 20 µM.

As to `Cc1nsc(Nc2cc(C#N)ccn2)c1C(=O)Nc1cccc(NC(=O)C(C)(C)C)c1` [Example 183, 5-[(4-cyanopyridin-2-yl)amino]-N-{3-[(2,2-dimethylpropanoyl)amino]phenyl}-3-methyl-1,2-thiazole-4-carboxamide], the IC50 is greater than 20 µM.

Take `Cc1nsc(Nc2cnc3ccccc3n2)c1C(=O)Nc1ccccc1S(C)(=O)=O` [Example 188, 3-methyl-N-[2-(methylsulfonyl)phenyl]-5-(quinoxalin-2-ylamino)-1,2-thiazole-4-carboxamide]: the IC50 is greater than 20 µM.

`Cc1nsc(Nc2cnccn2)c1C(=O)Nc1ccc(C(=O)OC(C)(C)C)cc1` [Example 184, tert-butyl 4-({[3-methyl-5-(pyrazin-2-ylamino)-1,2-thiazol-4-yl]carbonyl}amino)benzoate]: the IC50 was greater than 20 µM.

With `Cc1nsc(Nc2ccc(C#N)cn2)c1C(=O)Nc1cccc(C(=O)OC(C)(C)C)c1` [Example 240, tert-butyl 3-[({5-[(5-cyanopyridin-2-yl)amino]-3-methyl-1,2-thiazol-4-yl}carbonyl)amino]benzoate], the IC50 is greater than 20 µM.

As for `Cc1nsc(Nc2cnc3ccccc3n2)c1C(=O)Nc1ccc(NC2CCN(C(=O)OC(C)(C)C)CC2)nc1` [Example 234, tert-butyl 4-{[5-({[3-methyl-5-(quinoxalin-2-ylamino)-1,2-thiazol-4-yl]carbonyl}amino)pyridin-2-yl]amino}piperidine-1-carboxylate], the IC50 was greater than 20 µM.

Regarding `Cc1nsc(Nc2cncc(C(F)(F)F)n2)c1C(=O)Nc1ccc(OC2CCN(C)CC2)nc1` [Example 219, 3-methyl-N-{6-[(1-methylpiperidin-4-yl)oxy]pyridin-3-yl}-5-{[6-(trifluoromethyl)pyrazin-2-yl]amino}-1,2-thiazole-4-carboxamide], the IC50 is greater than 20 µM.
